{"source": "patent US10953063B2", "about": "“Method of treating select cancers using timed administration of plant extract from species Physalis pubescens and Hedyotis diffusa willd” (priority 2018, dated 2021)", "origin": "cited, not measured here", "system": "human leukemia cells", "settings": "research findings", "data": [{"smiles": "Cc1cc2c(cc1O)C(=O)c1ccccc1C2=O", "note": "[2-Hydroxy-3-Methylanthraguinone]", "values": [{"measurement": "apoptosis in human leukemia cells", "result": "induces apoptosis"}]}]}
